This passage reports concentration and inhibition results from ChEMBL document CHEMBL1240359, “Micafungin concentrations from brain tissue and pancreatic pseudocyst fluid” (Antimicrob Agents Chemother, 2010).

A short description of data set [1]: Drug level in rabbit brain at 1 mg/kg/day, iv for 8 days measured 30 mins after last dose. Type of data set: ADME, organism-based, Oryctolagus cuniculus. More on the design: route intravenous. Conditions: read-out: Drug uptake.
Another data set has as its system Candida albicans. Briefly: Antimicrobial activity against Candida albicans infected in neutropenic rabbit model of disseminated candidiasis assessed as reduction in brain microbial burden at 0.25 to 2 mg/kg/day for 10 days. In kind it is functional, organism-based.
Data set [2] is described as follows: Drug level in rabbit brain at 0.5 mg/kg/day, iv for 8 days measured 30 mins after last dose. Type of data set: ADME, organism-based, Oryctolagus cuniculus. On the set-up: route intravenous. Conditions: read-out: Drug uptake.
A short description of data set [3]: Drug level in pancreatic pseudocyst fluid of patient with invasive candidiasis measured 24 hrs post last dose by HPLC. In kind it is ADME. The conditions noted are these: human, read-out: Drug uptake.
The nature of data set [4]: Drug level in rabbit lung at 0.5 to 2 mg/kg/day, iv for 8 days measured 30 mins after last dose. On the set-up: route intravenous. In kind it is ADME, organism-based, Oryctolagus cuniculus. The conditions noted are these: read-out: Drug uptake.
Data set [5] is described as follows: Plasma concentration in patient with invasive candidiasis measured 23 hrs post last dose by HPLC. Type of data set: ADME, organism-based. The conditions noted are these: human.
The nature of data set [6]: Drug level in brain of patient with invasive candidiasis measured 23 hrs post last dose by HPLC. Conditions: human, read-out: Drug uptake. Type of data set: ADME, tissue-based.
A short description of data set [7]: Drug level in rabbit brain at 2 mg/kg/day, iv for 8 days measured 30 mins after last dose. In kind it is ADME, organism-based, Oryctolagus cuniculus. More on the design: route intravenous. Conditions: read-out: Drug uptake.
Data set [8] is described as follows: Drug level in rabbit kidney at 0.5 to 2 mg/kg/day, iv for 8 days measured 30 mins after last dose. Type of data set: ADME, organism-based, Oryctolagus cuniculus. On the set-up: route intravenous. The conditions noted are these: read-out: Drug uptake.

Active and inactive are the calls of the source. No cut-off for these calls is given here. Starred links: 1 amine or outer side, 2 acyl side, 3 side chain; linkers in the order of their positions; H or OH if unused. Positions of bridges follow the written chain, without caps; N, C: chain ends. Non-standard residues stand in square brackets, D forms with d. Residues, ends and D or L forms follow the SMILES beside them. *: point of attachment. hTyr(3S-OH,4S-OH,3'-OSO3H) = N[C@H](C(=O)O)[C@H](O)[C@@H](O)c1ccc(O)c(OS(=O)(=O)O)c1; Orn(4R-OH,5R-OH) = O=C([C@H](C[C@@H](O)[C@@H](O)N[*:3])N[*:1])[*:2]; Pro(3S-OH,4S-Me) = C[C@H]1CN[C@H](C(=O)O)[C@H]1O; X1 = CCCCCOc1ccc(-c2cc(-c3ccc(C(=O)*)cc3)no2)cc1; Gln(3R-OH) = NC(=O)C[C@@H](O)[C@H](N)C(=O)O; Hyp = O=C(O)[C@@H]1C[C@@H](O)CN1

As for `CCCCCOc1ccc(-c2cc(-c3ccc(C(=O)N[C@H]4C[C@@H](O)[C@@H](O)NC(=O)[C@@H]5[C@@H](O)[C@@H](C)CN5C(=O)[C@H]([C@H](O)CC(N)=O)NC(=O)[C@H]([C@H](O)[C@@H](O)c5ccc(O)c(OS(=O)(=O)O)c5)NC(=O)[C@@H]5C[C@@H](O)CN5C(=O)[C@H]([C@@H](C)O)NC4=O)cc3)no2)cc1` [MICAFUNGIN] (X1-[Orn(4R-OH,5R-OH)]T[Hyp][hTyr(3S-OH,4S-OH,3'-OSO3H)][Gln(3R-OH)][Pro(3S-OH,4S-Me)]; lactam 1-C), the concentration at 0.5 h was determined as 100 ng/g in data set [1]; 80 ng/g in data set [2]; 2260 ng/g in data set [4]; 180 ng/g in data set [7]; 1400 ng/g in data set [8]. Moreover, in the data set with Candida albicans, the inhibition entry was “Active”. In data set [3], the concentration at 24 h stood at 380 ng/mL. Further, the concentration at 23 h in [5] stood at 1580 ng/mL; in data set [6], 280 ng/mL.
